Data as given in the NIST ThermoML archive (doi:10.1016/j.jct.2015.12.019).
Numbers after ± are expanded uncertainties.

Assay: refractive index (Na D-line) (dimensionless)
Conditions: 303.15 K; 101.33 kPa; Liquid; Standard Abbe refractometry

| SMILES | refractive index |
| --- | --- |
| CC(C)C(=O)O [2-methylpropanoic acid] | 1.3913 ± 0.018 |
| CCCCCCC [heptane] | 1.3844 ± 0.018 |
| O=S1(=O)CCCC1 [sulfolane] | 1.4815 ± 0.018 |
